Values of other authors in patent US6858744B2, “Dihydoxyhexanoic acid derivatives, their intermediates, and methods of making” (Pfizer Inc., priority 2002, dated 2005).

O=C(O)C(F)(F)F [trifluoro-acetic acid]
pKa: 0.3
